Data published in US8143237B2, “Anti-cancer drugs, and uses relating for malignant melanoma and other cancers” (Kasina Laila Innova Pharmaceuticals Private Limited, priority 2009, dated 2012).
Converted amounts (≈) assume the structure as drawn. “Also recorded” adds a separate entry of the source. Where two headings read alike, the source gives them in different places.

How the values were obtained:
[1] = system: mouse malignant melanoma B16 F0 cells; experiment: MTT based cell proliferation assay, B16 F0 cells; details: for IC50: Mus musculus, B16F0, 72 h, MTT, three days incubation, read-out: Cell proliferation inhibition in B16F0 cells, IC50
Experimental: (§1) The cytotoxic efficacies of the various selenopheno triazene compounds (compounds 1 to 16) was evaluated in both human malignant melanoma A375 cells and mouse malignant melanoma B16 F0 cells by MTT cell proliferation assay kit (Roche Applied Sciences, Germany). The assay was carried out according to the instruction provided by the vendor. Briefly, equal numbers of cells was plated in 96-well flat-bottomed plates and were incubated with both DTIC and the test compounds (compounds 1 to 16) at various concentrations for a period of three days. […] Finally, the cells were solubilized by adding solubilizing solution and allowed to incubate at 37° C. overnight. After complete solubilization of the formazan crystals, the absorbance was read at 540 nm in a microplate reader (BioRad, USA).

[2] = system: human malignant melanoma A375 cells; experiment: MTT based cell proliferation assay, A375 cells; details: A-375, 72 h, three days incubation, read-out: Cell proliferation inhibition in A375 cells, IC50
Experimental: as §1

A549 lung tumor cells = experiment: MTT based cell proliferation assay, A549; details: Homo sapiens, read-out: Anti-tumor growth potential (IC50) in A549
Experimental: (§2) MTT [3-(4,5-dimethylthiazol-2-yl)-2,5-diphenyltetrazolium bromide] incorporation based cell proliferation assay was performed using standard procedure. The cytotoxic efficacies of the various selenopheno triazene compounds (compounds 1 to 16) was evaluated in both human malignant melanoma A375 cells and mouse malignant melanoma B16 F0 cells by MTT cell proliferation assay kit (Roche Applied Sciences, Germany). The assay was carried out according to the instruction provided by the vendor. Briefly, equal numbers of cells was plated in 96-well flat-bottomed plates and were incubated with both DTIC and the test compounds (compounds 1 to 16) at various concentrations for a period of three days. Vehicle control culture wells received only a maximum of 0.5% DMSO. Thereafter, 0.5 mg/ml of MTT reagent was added to each well and the microplate was incubated further for 4 h at 37° C. in presence of 5% CO2. […] After complete solubilization of the formazan crystals, the absorbance was read at 540 nm in a microplate reader (BioRad, USA). […]
(§3) Anti-tumor growth potential of Compound 1 and DTIC were evaluated in various human tumor cells such as A549 lung tumor cells, DU145 prostate tumor cells, HT29 colon cancer cells and MCF-7 (ER^+) breast tumor cells in vitro, by using MTT based cell proliferation assay as described earlier (example 17). […]

[3] = system: DU145 prostate tumor cells; experiment: MTT based cell proliferation assay, DU145; details: Homo sapiens, DU-145, read-out: Anti-tumor growth potential (IC50) in DU145
Experimental: as §2, §3

HT29 colon cancer cells = experiment: MTT based cell proliferation assay, HT29; details: Homo sapiens, HT-29, read-out: Anti-tumor growth potential (IC50) in HT29
Experimental: as §2, §3

[4] = system: MCF-7 (ER+) breast tumor cells; experiment: MTT based cell proliferation assay, MCF-7; details: Homo sapiens, MCF7, read-out: Anti-tumor growth potential (IC50) in MCF-7
Experimental: as §2, §3

[5] = system: HS.531.sk normal human skin epithelial cells; type: cell-based; details: 3 days
Experimental: MTT [3-(4,5-dimethylthiazol-2-yl)-2,5-diphenyltetrazolium bromide] incorporation based cell proliferation assay was performed using standard procedure. The cytotoxic efficacies of the various selenopheno triazene compounds (compounds 1 to 16) was evaluated in both human malignant melanoma A375 cells and mouse malignant melanoma B16 F0 cells by MTT cell proliferation assay kit (Roche Applied Sciences, Germany). The assay was carried out according to the instruction provided by the vendor. Briefly, equal numbers of cells was plated in 96-well flat-bottomed plates and were incubated with both DTIC and the test compounds (compounds 1 to 16) at various concentrations for a period of three days. Vehicle control culture wells received only a maximum of 0.5% DMSO. Thereafter, 0.5 mg/ml of MTT reagent was added to each well and the microplate was incubated further for 4 h at 37° C. in presence of 5% CO2. Finally, the cells were solubilized by adding solubilizing solution and allowed to incubate at 37° C. overnight. After complete solubilization of the formazan crystals, the absorbance was read at 540 nm in a microplate reader (BioRad, USA). The results (mean OD±SD) obtained from quadruplicate wells were used in calculation to determine the inhibition of cell proliferation (50% of inhibitory concentration, IC50) of the test compounds (compounds 1 to 16) (Table 1).
Next, to check whether the Compound 1 can selectively kill the melanoma cells without or minimally affecting the normal cells, we assessed the comparative efficacy of the Compound 1 and DTIC on cell growth inhibition of HS.531.sk normal human skin epithelial cells. The growth inhibitory effect of the test compound and DTIC was assessed by MTT proliferation assay as described earlier (Example 17). The comparative efficacies of Compound 1 and DTIC in inhibiting the normal skin epithelial cell growth are depicted in FIG. 2.

[6] = system: B16F0 mouse melanoma cells; experiment: Matrigel cell invasion assay; type: cell-based; details: 24 h
Experimental: The inhibitory effects of DTIC and compound 1 on invasive ability of B16F0 were tested in cell invasion assay performed with by using Matrigel (BME-Cultrex®, R&D Systems, USA) coated cell culture inserts (Becton Dickinson, USA) with 8 μm-pore membrane. Equal number (fifty thousands) of B16F0 cells were applied in each insert well and allowed to attach for 2 h at 37° C. and in presence of 5% CO2. Thereafter, the cellular invasion through the matrigel layer was performed in presence or absence of test compounds. Either 100 μg/ml of DTIC or 20 μg/ml of Compound 1 was applied in the lower chamber of the invasion assembly. 0.1% DMSO was applied in the vehicle control culture chambers. After 24 h treatment, the matrigel layer containing cells was removed with cotton plug and the invaded cells on the other side of the membrane were fixed with methanol for 5 min and then stained with Giemsa. The stained membrane was mounted on a glass slide and number invaded cells were counted in 20 random fields (20× objective) under a light microscope (Nikon Eclipse TS 100).

[7] = system: B16 F0 melanoma xenograft; experiment: B16 F0 melanoma xenograft model of C57B6J mice; type: in vivo, mouse; details: fourteen days, tumor weight
Experimental: In vivo efficacy of compound 1 against melanoma growth was evaluated in B 16 F0 melanoma xenograft model of C57B6J mice. C57B6J mice of 6 weeks age (body weight 18-22 g) were purchased from National Institute of Nutrition (NIN), Hyderabad (India). Animals study protocols were approved by Institutional Ethics Committee (IAEC). All the studies were performed in compliance with the Committee for the Purpose of Control and Supervision of Experiments on Animals (CPCSEA) guidelines and OECD guidelines. Animals were allowed free access to standard feed and provided charcoal filtered and UV exposed water ad libitum. The animals were maintained at a controlled temperature (24-26° C.), humidity (45-70%), and 12 h/12 h of light/dark cycle.
To induce the melanoma tumor formation, sub-confluent B16F0 cells were harvested by brief trypsinization and 1×10^6 cells were injected subcutaneously in 0.2 ml phosphate-buffered saline. Drug treatment was started after development of palpable tumors (3-5 days after implantation of the cells). Drugs were prepared in phosphate-buffered saline (10% DMSO, v/v) and either 75 mg/kg of DTIC or 25 mg/kg of compound 1 was administered daily through intra-peritoneal route. Vehicle treated control animals received only 10% DMSO in phosphate buffered saline. After fourteen days of treatment, the animals were sacrificed by CO2 inhalation and tumors were excised and weighed.

Row | Compound | Potency of inhibition relative to Dacarbazine, mouse melanoma B16 cells ([1]; MTT IC50 comparison) [times] | IC50 [1] [µg/mL] | IC50 [2] [µg/mL] | IC50 (A549 lung tumor cells) [µg/mL] | IC50 [3] [µg/mL] | IC50 (HT29 colon cancer cells) [µg/mL] | IC50 [4] [µg/mL] | Growth inhibition of HS.531.sk normal human skin epithelial cells ([5]; 25 μg/ml) [%] | Growth inhibition of HS.531.sk normal human skin epithelial cells ([5]; 50 μg/ml) [%] | B16 F0 melanoma tumor cell invasion vs vehicle control ([6]; 20 μg/ml, p=0.0017) | Inhibition in tumor growth, mouse melanoma xenograft model of C57B6J mice ([7]; 25 mg/kg daily intra-peritoneal) [%] | B16 F0 melanoma tumor cell invasion vs vehicle control ([6]; 100 μg/ml) | Inhibition in tumor growth, mouse melanoma xenograft model of C57B6J mice ([7]; 75 mg/kg daily intra-peritoneal) [%]
1 | Cc1[se]c(C(N)=O)cc1/N=N/N(C)C [Compound 1, 4-[(dimethylamino)diazenyl]-5-methylselenophene-2-carboxamide] | 5 | 46.6 (≈ 180 µM) | 9.81 (≈ 37.9 µM) | 7.68 (≈ 29.6 µM) | 8.97 (≈ 34.6 µM) | 13.3 (≈ 51.3 µM) | 7.03 (≈ 27.1 µM) | 2.33 | 23.83 | significantly reduced; also recorded: significantly inhibited the invasion | 31.2 | – | –
2 | CN(C)N=Nc1[nH]cnc1C(N)=O [DTIC, 5-(3,3-dimethyl-1-trizeno)-imidazole-4-carboxamide, reference compound] | – | 325 (≈ 1790 µM) | 70.1 (≈ 385 µM) | 95 (≈ 521 µM) | 58.5 (≈ 321 µM) | 141 (≈ 774 µM) | 85.1 (≈ 467 µM) | 34.58 | 43.46 | – | – | could not significantly inhibit; also recorded: failed to inhibit the tumor cell invasion | 17
